Experimental data taken from ChEMBL document CHEMBL1149126, “3-phenyl-6-(2-pyridyl)methyloxy-1,2,4-triazolo[3,4-a]phthalazines and analogues: high-affinity gamma-aminobutyric acid-A benzodiazepine receptor ligands with alpha 2, alpha 3, and alpha 5-subtype binding selectivity over alpha 1” (J Med Chem, 2004).

Experiments:
[1] = biological target: T1, GABA-A receptor; alpha-1/beta-3/gamma-2 (Homo sapiens) (UniProt P14867+P18507+P28472); assay: (§1) Maximum percent change compared to GABA EC20 against GABA-A alpha-1-beta-3-gamma-2 receptor; assay type: functional
[2] = biological target: T2, GABA-A receptor; alpha-3/beta-3/gamma-2 (Homo sapiens) (UniProt P18507+P28472+P34903); assay: (§2) Maximum percent change compared to GABA EC20 against GABA-A alpha-3-beta-3-gamma-2 receptor; assay type: functional
[3] = biological target: T3, GABA-A receptor; alpha-1/beta-3/gamma-2 (Homo sapiens, UniProt P14867+P18507+P28472); assay: Binding affinity for human GABA-A receptor alpha-1-beta-3-gamma-2 subunits in L(tk-) cells
T3 sequence (P14867 whole entry): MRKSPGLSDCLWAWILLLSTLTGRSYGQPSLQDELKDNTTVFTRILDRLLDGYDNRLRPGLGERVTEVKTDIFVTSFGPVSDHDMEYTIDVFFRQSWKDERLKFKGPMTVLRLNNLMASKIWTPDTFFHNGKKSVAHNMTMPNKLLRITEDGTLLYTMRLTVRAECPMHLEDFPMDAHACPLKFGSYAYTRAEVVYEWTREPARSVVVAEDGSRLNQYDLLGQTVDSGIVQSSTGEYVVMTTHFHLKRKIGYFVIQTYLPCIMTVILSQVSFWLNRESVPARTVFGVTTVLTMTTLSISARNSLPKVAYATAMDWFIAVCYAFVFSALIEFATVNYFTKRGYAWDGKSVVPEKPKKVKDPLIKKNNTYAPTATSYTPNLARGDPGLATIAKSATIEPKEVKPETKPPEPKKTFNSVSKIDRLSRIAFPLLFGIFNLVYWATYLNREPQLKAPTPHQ
T3 sequence (P18507 whole entry): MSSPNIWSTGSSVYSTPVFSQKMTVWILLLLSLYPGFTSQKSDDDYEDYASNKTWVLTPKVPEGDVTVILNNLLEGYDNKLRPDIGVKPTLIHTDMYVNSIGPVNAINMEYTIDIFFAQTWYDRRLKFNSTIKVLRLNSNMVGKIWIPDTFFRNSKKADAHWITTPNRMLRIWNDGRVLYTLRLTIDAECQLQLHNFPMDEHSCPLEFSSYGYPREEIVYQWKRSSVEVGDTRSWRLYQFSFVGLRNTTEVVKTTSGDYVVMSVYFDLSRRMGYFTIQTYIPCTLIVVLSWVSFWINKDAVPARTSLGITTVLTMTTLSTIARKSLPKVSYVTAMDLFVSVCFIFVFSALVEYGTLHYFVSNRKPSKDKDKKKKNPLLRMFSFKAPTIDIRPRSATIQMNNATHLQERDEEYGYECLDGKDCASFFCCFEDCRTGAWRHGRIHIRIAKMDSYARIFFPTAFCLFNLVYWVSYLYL
T3 sequence (P28472 whole entry): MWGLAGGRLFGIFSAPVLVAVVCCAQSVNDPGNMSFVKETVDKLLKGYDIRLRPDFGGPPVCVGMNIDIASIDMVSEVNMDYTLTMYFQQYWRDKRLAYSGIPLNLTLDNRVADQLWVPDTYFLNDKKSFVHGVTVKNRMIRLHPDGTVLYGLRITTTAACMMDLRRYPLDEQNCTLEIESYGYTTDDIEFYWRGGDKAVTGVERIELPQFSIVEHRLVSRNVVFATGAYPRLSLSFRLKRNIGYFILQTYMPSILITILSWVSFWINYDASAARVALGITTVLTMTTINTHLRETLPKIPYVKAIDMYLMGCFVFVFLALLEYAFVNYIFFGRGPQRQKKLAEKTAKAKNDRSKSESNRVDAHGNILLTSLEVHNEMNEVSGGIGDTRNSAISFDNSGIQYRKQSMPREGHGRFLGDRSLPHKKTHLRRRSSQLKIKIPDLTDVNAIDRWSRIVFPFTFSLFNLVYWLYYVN

[4] = biological target: T4, GABA-A receptor; alpha-5/beta-3/gamma-2 (Homo sapiens, UniProt P18507+P28472+P31644); assay: Binding affinity for human GABA-A receptor alpha-5-beta-3-gamma-2 subunits in L(tk-) cells; assay type: cell-based
T4 sequence (P18507 whole entry): T3 sequence (P18507 whole entry)
T4 sequence (P28472 whole entry): T3 sequence (P28472 whole entry)
T4 sequence (P31644 whole entry): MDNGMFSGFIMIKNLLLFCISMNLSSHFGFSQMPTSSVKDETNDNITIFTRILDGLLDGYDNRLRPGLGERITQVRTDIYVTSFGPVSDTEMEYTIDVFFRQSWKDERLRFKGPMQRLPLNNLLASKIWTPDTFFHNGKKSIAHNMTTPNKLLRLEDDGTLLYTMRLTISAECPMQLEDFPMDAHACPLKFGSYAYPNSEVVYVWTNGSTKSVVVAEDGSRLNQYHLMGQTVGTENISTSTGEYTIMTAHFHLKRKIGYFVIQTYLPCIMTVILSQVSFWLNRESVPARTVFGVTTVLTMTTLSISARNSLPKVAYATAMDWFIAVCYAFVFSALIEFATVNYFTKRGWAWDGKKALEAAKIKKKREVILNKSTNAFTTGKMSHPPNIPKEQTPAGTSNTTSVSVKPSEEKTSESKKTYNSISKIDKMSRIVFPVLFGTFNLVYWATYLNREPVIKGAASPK

[5] = biological target: T5, GABA-A receptor; alpha-3/beta-3/gamma-2 (Homo sapiens, UniProt P18507+P28472+P34903); assay: Binding affinity for human GABA-A receptor alpha-3-beta-3-gamma-2 subunits in L(tk-) cells; assay type: cell-based
T5 sequence (P18507 whole entry): T3 sequence (P18507 whole entry)
T5 sequence (P28472 whole entry): T3 sequence (P28472 whole entry)
T5 sequence (P34903 whole entry): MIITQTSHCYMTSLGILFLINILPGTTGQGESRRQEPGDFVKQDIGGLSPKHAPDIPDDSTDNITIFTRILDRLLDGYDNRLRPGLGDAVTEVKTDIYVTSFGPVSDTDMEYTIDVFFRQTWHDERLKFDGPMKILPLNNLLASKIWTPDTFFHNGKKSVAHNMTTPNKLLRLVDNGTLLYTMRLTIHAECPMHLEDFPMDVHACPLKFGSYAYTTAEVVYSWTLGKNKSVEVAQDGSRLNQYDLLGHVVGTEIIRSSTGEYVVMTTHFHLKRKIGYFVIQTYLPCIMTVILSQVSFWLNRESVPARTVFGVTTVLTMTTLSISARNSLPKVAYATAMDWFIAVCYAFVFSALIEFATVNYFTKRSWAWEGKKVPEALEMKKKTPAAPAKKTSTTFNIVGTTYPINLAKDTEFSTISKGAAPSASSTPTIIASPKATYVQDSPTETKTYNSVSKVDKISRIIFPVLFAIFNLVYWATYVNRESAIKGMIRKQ

[6] = biological target: T6, GABA-A receptor; alpha-2/beta-3/gamma-2 (Homo sapiens, UniProt P18507+P28472+P47869); assay: Binding affinity for human GABA-A receptor alpha-2-beta-3-gamma-2 subunits in L(tk-) cells; assay type: cell-based
T6 sequence (P18507 whole entry): T3 sequence (P18507 whole entry)
T6 sequence (P28472 whole entry): T3 sequence (P28472 whole entry)
T6 sequence (P47869 whole entry): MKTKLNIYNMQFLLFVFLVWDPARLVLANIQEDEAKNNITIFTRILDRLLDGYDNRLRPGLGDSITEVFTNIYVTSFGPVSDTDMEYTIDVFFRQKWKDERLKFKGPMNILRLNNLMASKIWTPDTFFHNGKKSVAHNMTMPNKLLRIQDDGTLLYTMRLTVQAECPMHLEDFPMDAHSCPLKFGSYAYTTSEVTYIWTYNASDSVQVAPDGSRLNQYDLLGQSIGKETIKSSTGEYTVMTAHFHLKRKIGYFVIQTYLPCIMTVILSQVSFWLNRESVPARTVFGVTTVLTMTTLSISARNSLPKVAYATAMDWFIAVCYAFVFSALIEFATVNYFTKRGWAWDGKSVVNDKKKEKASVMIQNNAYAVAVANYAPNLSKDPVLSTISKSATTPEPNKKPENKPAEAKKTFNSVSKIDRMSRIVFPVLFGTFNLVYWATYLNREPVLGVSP

[7] = biological target: T2, GABA-A receptor; alpha-3/beta-3/gamma-2 (Homo sapiens); assay: Inverse agonistic activity against GABA-A receptor alpha-3-beta-3-gamma-2 subunits; assay type: functional
[8] = biological target: T7, GABA-A receptor; alpha-5/beta-3/gamma-2 (Homo sapiens) (UniProt P18507+P28472+P31644); assay: Maximum percent change compared to GABA EC20 against GABA-A alpha-5-beta-3-gamma-2 receptor; assay type: functional
[9] = biological target: T8, GABA-A receptor; alpha-2/beta-3/gamma-2 (Homo sapiens) (UniProt P18507+P28472+P47869); assay: Maximum percent change compared to GABA EC20 against GABA-A alpha-2-beta-3-gamma-2 receptor; assay type: functional
[10] = biological target: T1, GABA-A receptor; alpha-1/beta-3/gamma-2 (Homo sapiens); assay: Inverse agonistic activity against GABA-A receptor alpha-1-beta-3-gamma-2 subunits; assay type: functional
[11] = biological target: T2, GABA-A receptor; alpha-3/beta-3/gamma-2 (Homo sapiens); assay: Agonistic activity against GABA-A receptor alpha-3-beta-3-gamma-2; assay type: functional
[12] = biological target: T1, GABA-A receptor; alpha-1/beta-3/gamma-2 (Homo sapiens); assay: as §1; assay type: protein-complex assay
[13] = biological target: T2, GABA-A receptor; alpha-3/beta-3/gamma-2 (Homo sapiens); assay: Partial agonistic activity against GABA-A receptor alpha-3-beta-3-gamma-2 subunits; assay type: functional
[14] = biological target: T1, GABA-A receptor; alpha-1/beta-3/gamma-2 (Homo sapiens); assay: Partial agonistic activity against GABA-A receptor alpha-1-beta-3-gamma-2 subunits; assay type: functional
[15] = biological target: T8, GABA-A receptor; alpha-2/beta-3/gamma-2 (Homo sapiens); assay: Partial agonistic activity against GABA-A receptor alpha-2-beta-3-gamma-2 subunits; assay type: functional
[16] = biological target: T7, GABA-A receptor; alpha-5/beta-3/gamma-2 (Homo sapiens); assay: Efficacy at human GABA-A receptor alpha-5-beta-3-gamma-2 subunits
[17] = biological target: T2, GABA-A receptor; alpha-3/beta-3/gamma-2 (Homo sapiens); assay: as §2; assay type: functional; remark: listed apart in the source

| SMILES | Efficacy [2] [%] | Ki [3] [µM] | Ki [4] [µM] | Ki [5] [µM] | Ki [6] [µM] | further results |
| --- | --- | --- | --- | --- | --- | --- |
| Cc1ccc2c(c1)c(OCc1ccccn1)nn1c(-c3ccccc3)nnc21 | 27 | 0.0022 | 0.00064 | 0.0012 | 0.0022 | Efficacy [1]: 65% |
| CC(C)c1nnc2c3ccccc3c(OCc3ccccn3)nn12 |  | 0.16 | 0.008 | 0.039 | 0.056 | Activity [7]: -21% |
| c1ccc(-c2nnc3c4c(c(OCc5ccccn5)nn23)CCCCC4)cc1 | 30 | 0.041 | 0.0027 | 0.017 | 0.017 | Efficacy [8]: 37%; Efficacy [1]: 30%; Efficacy [9]: 27% |
| c1ccc(COc2nn3c(C4CC4)nnc3c3ccccc23)nc1 |  | 0.016 | 0.00074 | 0.0026 | 0.0058 | Activity [7]: -26%; Activity [10]: -20% |
| Cc1cccc2c(OCc3ccccn3)nn3c(-c4ccccc4)nnc3c12 | 19 | 0.0012 | 0.00084 | 0.00037 | 0.0018 | Efficacy [1]: 0% |
| Cc1nnc2c3ccccc3c(OCc3ccccn3)nn12 |  | 0.9 | 0.029 | 0.081 | 0.47 | Activity [11]: -38% |
| CC(Oc1nn2c(-c3ccccc3)nnc2c2ccccc12)c1ccccn1 (centres undefined) | 25 | 0.96 | 0.14 | 0.32 | 0.52 | Efficacy [12]: 36% |
| Cc1cccc(COc2nn3c(-c4ccccc4)nnc3c3ccccc23)n1 |  | 0.0084 | 0.0025 | 0.0012 | 0.008 | Activity [13]: -8%; Activity [14]: 1%; Activity [15]: -4%; Efficacy [16]: 11% |
| Cc1cccc2c1c(OCc1ccccn1)nn1c(-c3ccccc3)nnc21 | 39 | 0.056 | 0.02 | 0.035 | 0.044 | Efficacy [1]: 43% |
| c1ccc(-c2nnc3c4c(c(OCc5ccccn5)nn23)CCCC4)cc1 | 17 | 0.0043 | 0.00038 | 0.00085 | 0.0019 | Efficacy [8]: 6%; Efficacy [1]: 16%; Efficacy [9]: 18% |
| c1ccc(COc2nn3c(-c4ccccc4)nnc3c3ccccc23)cc1 |  | 0.28 | 0.038 | 0.041 | 0.016 |  |
| c1ccc(CSc2nn3c(-c4ccccc4)nnc3c3ccccc23)cc1 |  | > 1 | > 1 | > 1 | > 1 |  |
| Clc1cccc(COc2nn3c(-c4ccccc4)nnc3c3ccccc23)c1 |  | > 1 | > 1 | > 1 | > 1 |  |
| c1ccc(-c2nnc3c4ccccc4c(OCCc4ccccn4)nn23)cc1 |  | 0.018 | 0.015 | 0.017 | 0.025 |  |
| CN(C)Cc1nnc2c3ccccc3c(OCc3ccccn3)nn12 |  | 0.14 | 0.16 | 0.84 | 0.62 |  |
| c1ccc(CNc2nn3c(-c4ccccc4)nnc3c3ccccc23)cc1 |  | > 1 | > 1 | > 1 | > 1 |  |
| Clc1ccc(COc2nn3c(-c4ccccc4)nnc3c3ccccc23)cc1 |  | 0.48 | 0.17 | 0.25 | 0.38 |  |
| C=Cc1nnc2c3ccccc3c(OCc3ccccn3)nn12 | -31 | 0.049 | 0.0032 | 0.011 | 0.028 |  |
| CCCc1nnc2c3ccccc3c(OCc3ccccn3)nn12 |  | 0.16 | 0.019 | 0.052 | 0.12 |  |
| c1ccc(CCCOc2nn3c(-c4ccccc4)nnc3c3ccccc23)cc1 |  | 0.3 | > 1 | 0.42 | > 1 |  |
| c1ccc(-c2nnc3c4ccccc4c(OCc4ccccn4)nn23)cc1 | -16 | 0.0027 | 0.00033 | 0.00071 | 0.0017 | Efficacy [8]: -5%; Efficacy [1]: -7%; Efficacy [17]: -16%; Efficacy [12]: -7%; Efficacy [9]: -5% |
| COc1ccccc1COc1nn2c(-c3ccccc3)nnc2c2ccccc12 |  | > 1 | > 1 | > 1 | > 1 |  |
